Assay results published in publication PMC8842605, “Novel Derivatives of diphenyl-1,3,4-oxadiazol as Ligands of Benzodiazepine Receptors; Synthesize, Binding Assay and Pharmacological Evaluation” (Iranian Journal of Pharmaceutical Research : IJPR, 2021).

Legend:
[1] = test system: mice; test: Elevated plus maze test; assay type: in vivo; settings: Mus musculus, percentage of time spent in open arms, read-out: ED50 (95% CI), Elevated plus maze test
Method: To assay the anti-anxiety effects of novel synthesized compounds, the elevated plus-maze test was used. The apparatus of the elevated plus-maze test is prepared of two open arms (30 × 5 × 0.5 cm) and two close arms (30 × 5 × 35 cm) with an open roof and was set at a height of 50 cm above the floor.

[2] = test system: pentylenetetrazol-induced seizure; test: Pentylenetetrazol (PTZ) test; assay type: in vivo; settings: Mus musculus, 0.5 h; mice, 30 min after administration; number of dead animals; read-out: ED50 (95% CI), PTZ test
Text: (§1) Two useful seizure models (MES and PTZ) were organized for evaluation of the anticonvulsant activities of novel synthesized compounds. In these experiments, the capability of novel synthesized compounds to prevent the maximal electro shock-induced seizure and pentylenetetrazol-induced seizure were screened. MES test (60 Hz, 50 mA, 0.2 s) was done according to the method described by Toolabi et al. (2020). PTZ test was done Using the mothed described by Ranjbar-ekbatan et al. (2019). These experiments were applied 30 min after administration of the novel compounds. The number of HLTE (hind limb tonic extension) in the MES test and the number of dead animals in the PTZ test were counted ([30]–[32]).

[3] = test system: mice; test: Grip strength test; assay type: in vivo; settings: Mus musculus, 0.5 h, read-out: ED50 (95% CI), Grip strength test
Method: To assessment the muscle relaxant effects of novel synthesized compounds by measuring the maximum force applied to the digital force meter, the grip strength test was prepared. This assessment was guided using the modified method explained by Bachstetter et al. (2014). The test was repeated 3 times for each mouse, 30 min after injection of the novel compounds ([29]).

[4] = biological target: benzodiazepine receptor; test: Radioligand competition binding with [3H]-flumazenil; settings: rat brain membrane; for IC50: 35 min at 30 °C, read-out: IC50 (95% CI); for Ki: Cheng-Prussof equation
Method: Temporarily, the brain tissue of Male Sprague-Dawley rats (200-250 g weight) were used as the source of the benzodiazepine receptors. These tissues were collected, homogenized in 20 mL of ice‐cold Tris‐HCl buffer and centrifuged at 600 g for 10 min. in the next step, the supernatant was centrifuged 37000xg for 15 min at 4 °C. […] The Bradford method using bovine serum albumin as a standard, was applied for quantification of protein in the separated membrane. Saturation and competition experiments are two basic methods of receptor binding studies. […] NSB was determined in parallel assays performed in the presence of 100 μM diazepam. Competition experiments were used to measure the percentage inhibition of radioligand specific binding (IC50) and affinity (Ki) of the novel synthesized ligands and diazepam, using the Cheng-Prussof equation.

[5] = test system: mice; test: Open field test; assay type: in vivo; settings: Mus musculus, ip, intraperitoneal, 30 min before test, total distance movement, read-out: ED50 (95% CI), Open field test
Method: To the assessment of the sedative effects and locomotor activities of the novel synthesized compounds, the open field test was performed. […] The total distance movement was recorded for 10 min by a digital camera and then was calculated by an automated tracking system (Ethovision XT software, Noldus, The Netherlands) ([24]).

[6] = test system: mice; test: Pentobarbital induced sleep test; settings: Mus musculus, read-out: ED50 (95% CI), Pentobarbital induced Sleeping test
[7] = test system: maximal electro shock-induced seizure; test: Maximal electro shock (MES) test; assay type: in vivo; settings: Mus musculus, 0.5 h; mice, 30 min after administration; 60 Hz, 50 mA, 0.2 s; HLTE; read-out: ED50 (95% CI), MES test
Text: as §1

[8] = test system: mice; test: Rotarod test; assay type: in vivo; settings: 30 min after injection, 6 rpm, 1 min, Diazepam 2 mg/kg
Method: For evaluation of the motor coordination and balance capability, the rotarod test was used. Concisely, 30 min after injection of the novel compounds and Diazepam (2 mg/kg), each animal was located on a rotating rod (6 rpm, 1 min). In this experiment, the average time latency to fall for each animal was noted ([33]).

[9] = test system: mice; test: Passive avoidance test; assay type: in vivo; settings: Diazepam 2 mg/kg
Text: To determine the effects of novel synthesized compounds on learning and memory disorder, the passive avoidance test was done. The passive avoidance apparatus consists of two compartments, that one of them is brightly lit (white compartment) and another one is dimly lit (black compartment). A sliding door divides these two compartments. […] After arriving in the black compartment, it was received a mild unpleasant electrical stimulation (0.5 mA for 2 s) through the grid floor. During the test phase, the animal was relocated in the white compartment. However, there was no electric stimulation in the dark compartment. The latency to enter the dark compartment was recounted ([34],[35]).

[10] = mice, 30 min after injection, maximum force

Row | SMILES | ED50 [1] [mg/kg] | ED50 [2] [mg/kg] | ED50 [3, 10] [mg/kg] | IC50 [4] [nM] | Ki [4] [nM] | ED50 [5] [mg/kg] | ED50 [6] [mg/kg] | melting point [°C] | ED50 [7] [mg/kg] | ED50 [3] [mg/kg] | latency to fall in rotarod test vs control [8] | latency to enter the dark compartment in passive avoidance test vs control [9]
1 | O=C(Nc1ccccc1-c1nnc(-c2ccccc2)o1)c1ccccc1 [Compound 7a, N-(2-(5-phenyl-1,3,4-oxadiazol-2-yl)phenyl)benzamide] | 15.3 | 276 | 34.9 | 10.2 | 5.95 | 27.7 | 22.7 | 188 to 189 | 235 | – | – | –
2 | O=C(Nc1ccccc1-c1nnc(-c2ccccc2)o1)c1ccc(Cl)cc1 [Compound 7b, 4-chloro-N-(2-(5-phenyl-1,3,4-oxadiazol-2-yl)phenyl)benzamide] | 11.8 | 180 | 31.5 | 7.62 | 4.43 | 21.3 | 19.4 | 195 to 197 | 163 | – | – | –
3 | O=C(Nc1ccccc1-c1nnc(-c2ccccc2)o1)c1ccc(F)cc1 [Compound 7c, 4-fluoro-N-(2-(5-phenyl-1,3,4-oxadiazol-2-yl)phenyl)benzamide] | 13.7 | 118 | 30.9 | 6.05 | 3.51 | 19.7 | 17.1 | 189 to 190 | 105 | – | – | –
4 | Cc1ccc(C(=O)Nc2ccccc2-c2nnc(-c3ccccc3)o2)cc1 [Compound 7d, 4-methyl-N-(2-(5-phenyl-1,3,4-oxadiazol-2-yl)phenyl)benzamide] | 12.6 | 109 | 29.4 | 4.26 | 2.47 | 18.8 | 13.1 | 200 to 202 | 92.5 | – | – | –
5 | O=C(Nc1ccccc1-c1nnc(-c2ccccc2)o1)c1ccc([N+](=O)[O-])cc1 [Compound 7e, 4-nitro-N-(2-(5-phenyl-1,3,4-oxadiazol-2-yl)phenyl)benzamide] | 9.96 | 45.2 | 25.7 | 9.16 | 5.32 | 19.1 | 19.6 | 195 to 197 | 24.2 | – | – | –
6 | COc1ccc(C(=O)Nc2ccccc2-c2nnc(-c3ccccc3)o2)cc1 [Compound 7f, 4-methoxy-N-(2-(5-phenyl-1,3,4-oxadiazol-2-yl)phenyl)benzamide] | 12.7 | 136 | 26.7 | 3.03 | 1.76 | 14.5 | 9.91 | 216 to 217 | 136 | – | – | –
7 | CC(=O)Nc1ccccc1-c1nnc(-c2ccccc2)o1 [Compound 7g, N-(2-(5-phenyl-1,3,4-oxadiazol-2-yl)phenyl)acetamide] | 12.8 | 147 | 28.8 | 2.78 | 1.61 | 14 | 9.45 | 155 to 157 | 186 | – | – | –
8 | CCC(=O)Nc1ccccc1-c1nnc(-c2ccccc2)o1 [Compound 7h, N-(2-(5-phenyl-1,3,4-oxadiazol-2-yl)phenyl) propionamide] | 11.8 | 136 | 24.6 | 2.57 | 1.49 | 10.1 | 5.28 | 163 to 165 | 118 | – | – | –
9 | O=C(O)c1ccccc1C(=O)Nc1ccccc1-c1nnc(-c2ccccc2)o1 [Compound 7i, 2-((2-(5-phenyl-1,3,4-oxadiazol-2-yl)phenyl)carbamoyl)benzoic acid] | 8.71 | 45.1 | 13.2 | 1.54 | – | 7.14 | 4.64 | 196 to 198 | 26.7 | – | – | –
10 | O=C(O)CCC(=O)Nc1ccccc1-c1nnc(-c2ccccc2)o1 [Compound 7j, 4-oxo-4-((2-(5-phenyl-1,3,4-oxadiazol-2-yl)phenyl)amino)butanoic acid] | 9.77 | 60.9 | 17.1 | 1.66 | 0.96 | 8.9 | 4.98 | 159 to 160 | 40.8 | – | – | –
11 | CN1C(=O)CN=C(c2ccccc2)c2cc(Cl)ccc21 [Diazepam, reference compound] | 2.24 | 1.01 | – | 1.71 | 0.99 | 1.69 | 1.98 | – | 1.32 | 2.27 | significant decrease in latency to fall | significant reduction in latency to enter the dark compartment
